Where “and” joins values, the source holds several entries; their conditions need not be identical. Identical values can stand only once.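 Method: 48-hour compound exposure of cells in 96-well plates, five concentrations, linear interpolation of endpoints. At the GI50, growth is halved. TGI: concentration producing complete growth inhibition.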
Legend:
Test in all cases: NCI tumour cell line growth inhibition, 48 h
[1] = test system: 786-0 renal
[2] = test system: EKVX NSCLC
[3] = test system: KM12 colon
[4] = test system: OVCAR-4 ovarian
[5] = test system: OVCAR-5 ovarian
[6] = test system: OVCAR-8 ovarian
[7] = test system: RPMI-8226 leukemia
[8] = test system: RXF 393 renal
[9] = test system: SF-295 CNS
[10] = test system: UACC-62 melanoma

Compound | TGI [1] | TGI [2] | TGI [3] | TGI [4] | TGI [5] | TGI [6] | TGI [7] | TGI [8] | TGI [9] | TGI [10] | GI50 [2] | GI50 [3] | GI50 [4] | GI50 [5] | GI50 [6] | GI50 [7] | GI50 [8] | GI50 [9] | GI50 [10] | GI50 [1]
O=C1OC(c2ccco2)=N/C1=C\c1ccc(Cl)c(Cl)c1 | > 100 µM | > 100 µM | > 100 µM | > 100 µM | > 100 µM | > 100 µM | > 100 µM | > 100 µM | > 100 µM | > 100 µM | – | – | – | – | – | – | – | – | – | –
CC1=CC=NN2C(=O)[C@H](C)C2C1 (stereo partly specified) | > 100 µM | > 100 µM | > 100 µM | > 100 µM | > 100 µM | > 100 µM | > 100 µM | > 100 µM | > 100 µM | > 100 µM | – | – | – | – | – | – | – | – | – | –
Cc1ccc(S(=O)(=O)N/N=C(\CCN2CCCC2)CC(c2ccccc2)c2c(O)c3ccccc3oc2=O)cc1 (stereo unspecified) | > 100 µM | > 100 µM | > 100 µM | > 100 µM | > 100 µM | > 100 µM | > 100 µM | > 100 µM | > 100 µM | > 100 µM | – | – | – | – | – | – | – | – | – | –
Cc1[nH]c(=O)[nH]c(=O)c1N(CCF)CCCl | 1470 µM | 443 µM and 762 µM and 1200 µM | 824 µM and 1330 µM and 719 µM | 461 µM and 755 µM | 676 µM and 976 µM and 1200 µM | 632 µM and 1020 µM and 1140 µM | 515 µM and 838 µM and 1270 µM | 296 µM and 662 µM and 596 µM | 600 µM and > 25 µM and 1140 µM | 419 µM and 1040 µM and 673 µM | 165 µM and 406 µM and 557 µM | 280 µM and 508 µM | 230 µM | 329 µM and 400 µM | 210 µM and 388 µM and 217 µM | 161 µM and 190 µM and 122 µM | 128 µM and 265 µM | > 25 µM and 402 µM | 173 µM and 360 µM | –
COc1cc2oc(=O)cc(C)c2cc1[N+](=O)[O-] | 49.5 µM | > 100 µM | > 57.3 µM | 84.1 µM | > 79 µM | 40.7 µM | > 75.3 µM | 33.8 µM | > 100 µM | 34.6 µM | – | – | – | – | – | – | – | – | – | –
O=C(O)c1ccc(NC(=O)C2C(=O)C(=O)N(c3ccc(C(=O)O)cc3)C2=O)cc1 (stereo unspecified) | > 100 µM | > 100 µM | > 100 µM | > 100 µM | > 100 µM | > 100 µM | > 100 µM | > 100 µM | > 100 µM | > 100 µM | – | – | – | – | – | – | – | – | – | –
CN(C)CCCCN1CCc2c(n(C)c3ccccc23)C1=O | > 79.7 µM and 49.4 µM | 85.9 µM and > 100 µM | > 92.7 µM | > 100 µM | > 78.6 µM and 67.3 µM | > 100 µM | 93.2 µM and 64.7 µM | 84.7 µM and > 90.5 µM | 71.9 µM and 49.6 µM | 54.3 µM and 31.8 µM | – | – | – | 54.1 µM and 24.2 µM | – | 61.7 µM and 29.3 µM | – | – | – | –
O=C1C2C(C(=O)N1O)N(Cc1ccccc1)C(=O)N2Cc1ccccc1 (stereo unspecified) | > 100 µM | > 100 µM | > 100 µM | > 100 µM | > 100 µM | > 100 µM | > 100 µM | > 100 µM | > 100 µM | > 100 µM | – | – | – | – | – | – | – | – | – | –
Cn1c(=O)oc2cc(C(=O)CSC(=S)N3CCCCCC3)ccc21 | > 100 µM | > 100 µM | > 100 µM | > 100 µM | > 100 µM | > 100 µM | > 100 µM | > 100 µM | > 100 µM | > 100 µM | – | – | – | – | – | – | – | – | – | –
CCC/C(=N\NC(=S)N1CCN(c2ccccn2)CC1)c1ccccn1 | 1.82 µM and 1.94 µM | – | 0.64 µM and 1.52 µM | > 5.77 µM and 2.31 µM | > 4.36 µM | 0.476 µM and 1.5 µM | 0.024 µM and 0.0128 µM | 2.08 µM and 1.38 µM | 6.14 µM and 1.26 µM | 0.242 µM and 1.43 µM | 0.0308 µM | – | 0.0398 µM | 0.113 µM | – | – | 0.0102 µM | – | – | 0.0284 µM
C[Si](C)(C)C#CCO[Si](C)(C)C | > 78.8 µM | > 100 µM | > 89.3 µM | > 100 µM | > 100 µM | > 100 µM | > 79.8 µM | > 100 µM | > 100 µM | > 100 µM | – | – | – | – | – | – | – | – | – | –
C/C(CN1C(=O)c2ccccc2C1=O)=N\NS(=O)(=O)c1cccc([N+](=O)[O-])c1 | > 100 µM | > 100 µM | > 100 µM | > 100 µM | > 100 µM | > 100 µM | > 100 µM | > 100 µM | > 100 µM | > 100 µM | – | – | – | – | – | – | – | – | – | –
O=P(c1ccccc1)(c1ccccc1)C1CC=C(c2ccccc2)C2(CCCC2)C1 (stereo unspecified) | > 100 µM | > 100 µM | > 100 µM | > 100 µM | > 100 µM | > 100 µM | 52.1 µM | > 100 µM | > 100 µM | > 100 µM | – | – | – | – | – | – | – | – | – | –
Nc1c(C(=O)Nc2ccccc2)sc2nc3c(cc12)CCCCCC3 | 3.93 µM | 25.2 µM | 17.6 µM | 15.7 µM | 16.9 µM | 16.7 µM | 15.7 µM | 2.18 µM | 1.69 µM | 12.9 µM | 0.591 µM | 0.398 µM | 1.11 µM | 0.699 µM | 0.478 µM | 0.379 µM | 0.432 µM | 0.291 µM | 0.428 µM | 0.551 µM
CCC1=C(C)/C(=C/c2[nH]c(C)c(C(=O)CCCCC(=O)OC)c2C)N=C1c1ccc[nH]1 | 32 µM | 32 µM | > 77.4 µM | 17.3 µM | > 67.2 µM | 42.6 µM | 13.9 µM | 38.6 µM | 42 µM | 38.9 µM | 12.2 µM | 16.6 µM | 3.47 µM | 21.1 µM | 7.46 µM | 3.37 µM | 11.9 µM | 18.6 µM | 8.7 µM | 15.1 µM
CC[C@@H]1C[C@@H]2CN3CCc4c([nH]c5ccc(OC)cc45)C(COC(=O)c4ccc(OC)c(OC)c4)(C2)C13 | > 100 µM | > 100 µM | > 100 µM | > 100 µM | > 100 µM | > 100 µM | 86.4 µM | 62.6 µM | 70.6 µM | 28 µM | – | – | – | – | – | – | – | – | – | –
CCN1C(=O)C/C(=C\C(C)=O)Nc2ccccc21 | > 100 µM | > 100 µM | > 100 µM | > 100 µM | > 100 µM | > 100 µM | > 100 µM | > 100 µM | > 100 µM | > 100 µM | – | – | – | – | – | > 100 µM | – | – | – | –
C=C1C(=O)O[C@H]2[C@H]1CC/C(COC(=O)C(=O)c1c[nH]c3ccccc13)=C\CC[C@@]1(C)O[C@@H]21 | 3.72 µM | 20.7 µM | 13.4 µM | 25.9 µM | 6.42 µM | 12.7 µM | 10.9 µM | 3.61 µM | 24.9 µM | 4.29 µM | 8.31 µM | 3.28 µM | 5.18 µM | 2.35 µM | 3.14 µM | 2.07 µM | 2.01 µM | 11.8 µM | 1.89 µM | 1.84 µM
COc1ccc2[nH]cc(CCNC(C)=O)c2c1 | > 100 µM | > 100 µM | > 100 µM | > 100 µM | > 100 µM | > 100 µM | 57.1 µM | > 100 µM | > 100 µM | > 100 µM | – | – | – | – | – | – | – | – | – | –

Reference: PubChem BioAssay (NCI)
